Test [1] has as its system HER3, pHER3 and pAKT in SW620, SW480, Colo205, LOVO, HCT15 and Caco-2 cells. The test can be described thus: HRG ligand-dependent signaling in CRC tumor cell lines (Western blot). The class given is cell-based, human. To be noted: antibodies 10 μg/mL, gefitinib 5 μM, HRG 50 ng/mL. On the procedure:
In the presence of the HER3 ligand heregulin (HRG), HER3 heterodimerizes with EGFR or HER2, which leads to phosphorylation of HER3 and transmission of an oncogenic signal via phosphoinositide 3 kinase (PI3K) and protein kinase B (PKB), also known as AKT. A collection of CRC models were characterized to determine which receptor tyrosine kinase, EGFR or HER2, is the major driver of signaling through HER3. […] Briefly, cells were seeded into 24-well plates at a density of 1.5×10^5 cells per well. […] After 5-6 hours of incubation at 37° C., HRG was added at 50 ng/mL into one set of cells for 15 minutes at 37° C. All cells were then washed with cold PBS and lysed by the addition of 60 μL of 2×SDS (sodium dodecyl sulfate) sample buffer (Invitrogen). Lysates were transferred to 1.5 mL tubes and boiled for 5 minutes followed by chilling on ice for 2 minutes. Equal volumes (20 μL) of protein samples were resolved in NuPAGE Novex Bis-Tris gels (Invitrogen) before transfer to polyvinylidene fluoride (PVDF) membranes (Invitrogen). […] After washing, protein bands were detected on X-ray film by using SuperSignal West Pico Chemiluminescent Substrate (Pierce/Thermo Scientific).

Test [2] deals with MDA-MB-361 xenograft tumors. The experiment in a line: Orthotopic human MDA-MB-361 breast cancer xenograft model. The test is classed as in vivo, mouse. To be noted: 2C2-YTE 30 mg/kg, trastuzumab and rhuMAb 2C4 10 mg/kg, lapatinib 100 mg/kg twice daily. As to the method:
(§1) Orthotopic xenografts were established by injecting 5×10^6 cells per mouse (suspended in 50% matrigel) into the mammary fat pad on the right flank of 4 to 6-week-old athymic nu/nu mice. Estrogen pellets (0.36 mg) were placed under the skin of the left flank 1-2 days before cell injection. […] Lapatinib was administered by oral gavaging at 100 mg per kilogram body weight. Caliper measurements were used to calculate tumor volumes using the formula: tumor volume=π÷6(length×width×width) • for tumors grown in mice.

A further test deals with BT-474 xenograft tumors. The test can be described thus: Orthotopic human BT-474 breast cancer xenograft model. The test is classed as in vivo, mouse. To be noted: antibodies 30 mg/kg, lapatinib 100 mg/kg oral. As to the method:
Orthotopic xenografts were established by injecting 1×10^7 cells per mouse (suspended in 50% matrigel) into the mammary fat pad on the right flank of 4 to 6-week-old athymic nu/nu mice. Estrogen pellets (0.36 mg) were placed under the skin of the left flank 1-2 days before cell injection. […] Lapatinib was administered by oral gavaging at 100 mg per kilogram body weight. Caliper measurements were used to calculate tumor volumes using the formula: tumor volume=π÷6(length×width×width) • for tumors grown in mice.

The subject of a further test is Daudi cells. The experiment in a line: CDC assay against Daudi cells. The class given is cell-based. Particulars: CD20-expressing cells, data not shown. On the procedure: ADCC is one recognized way through which a monoclonal antibody can confer its anti-tumor efficacy in vivo. […] 2C2-YTE was tested in CDC assays using human serum as a source of complement.
The next test has as its system SkBR3 cells. The test can be described thus: CDC assay with human serum as source of complement. The test is classed as cell-based. To be noted: any concentration, data not shown. The source says:
ADCC is one recognized way through which a monoclonal antibody can confer its anti-tumor efficacy in vivo.

A further test deals with MCF-7 xenograft tumors. The test can be described thus: Orthotopic human MCF-7 breast cancer xenograft model. The test is classed as in vivo, mouse. To be noted: antibodies 10 mg/kg, paclitaxel 10 mg/kg i.v. every second day for ten days. On the procedure:
as §1, with “Human MCF-7 breast cancer cells were maintained at 37° C. in a 5% CO2 incubator in Optimem medium containing glutamax, 2.4/L sodium bicarbonate, Hepes and 5% fetal bovine serum. Orthotopic” for “Orthotopic”, “Paclitaxel” for “Lapatinib”, “intravenously” for “by oral gavaging”, “10” for “100”

As for `COc1cc2ncnc(Nc3ccc(F)c(Cl)c3)c2cc1OCCCN1CCOCC1` [gefitinib], the “HRG ligand-dependent signaling (HER3, pHER3, pAKT)” value in test [1] is recorded as “no effect”.

Take `CS(=O)(=O)CCNCc1ccc(-c2ccc3ncnc(Nc4ccc(OCc5cccc(F)c5)c(Cl)c4)c3c2)o1` [lapatinib]: the Anti-tumor efficacy result in test [2] is “showed anti-tumor efficacy”; with BT-474 xenograft tumors, “tumor stasis”.

For pertuzumab [rhuMAb 2C4], the Anti-tumor efficacy result in test [2] was “showed anti-tumor efficacy”. The “HRG ligand-dependent signaling (HER3, pHER3, pAKT)” value in test [1] was “inhibit HRG ligand-dependent signaling”.

Take rituximab [reference compound]: the CDC activity result is recorded as “substantial cell-kill activity” in the test with Daudi cells and “None of the antibodies including 2C2-YTE showed any detectable CDC activity” in the test with SkBR3 cells.

For the compound `CC(=O)O[C@H]1C(=O)[C@@]2(C)[C@H]([C@H](OC(=O)c3ccccc3)[C@]3(O)C[C@H](OC(=O)[C@H](O)[C@@H](NC(=O)c4ccccc4)c4ccccc4)C(C)=C1C3(C)C)[C@]1(OC(C)=O)CO[C@@H]1C[C@@H]2O` [paclitaxel], the Anti-tumor efficacy entry in the test with MCF-7 xenograft tumors is given as “clear anti-tumor efficacy”.
